Experimental data reported in patent US12043621B2, “Small molecule inhibitors of Interleukin-4” (Trustees of Boston University, priority 2020, dated 2024).

Tests used:
pSTAT6 in Ramos cells = assay: Reduction of pSTAT6 in Ramos cells (Western blot); assay type: cell-based; settings: Homo sapiens; Ramos cells (type I receptor complex); read-out: EC50 of pSTAT6 inhibition
Experimental: Ramos cells were used as cell-based model of IL-4 inhibition. Ramos cells express type I receptor complex (IL-4Rα and γc)—they were used to confirm that the lead compound D9 (compound 1 in Table 3) inhibits IL-4 signaling in this context as well.
The assay was run as described in Example 2 and 3 for THP-1 cells. Blotting was conducted for pSTAT6 and STAT6 and the percent of pSTAT6 calculated based on total STAT6. All conditions were run in triplicate. The results are depicted in FIGS. 22-23.

IL-4 = target: T1, IL-4 (Homo sapiens, UniProt P05112); assay: HEK-Blue IL-4/IL-13 cell-based reporter (SEAP) IL-4 inhibition assay; settings: Example 2, quadruplicate; read-out: EC50 of IL-4 inhibition in HEK-Blue IL-4/IL-13 cells
T1 construct: purchased Acros Biosystems IL4-H4218; host or cells: HEK-293
T1 sequence (P05112 25-153): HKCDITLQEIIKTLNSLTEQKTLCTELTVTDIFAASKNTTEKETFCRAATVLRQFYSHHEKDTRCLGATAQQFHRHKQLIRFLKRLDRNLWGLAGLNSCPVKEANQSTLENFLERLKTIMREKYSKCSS
Experimental: HEK-Blue IL-4/IL-13 cells were purchased from Invivogen and maintained in DMEM complete with 10% fetal bovine serum, 10 μg/ml of blasticidin and 100 μg/ml of Zeocin, 100 μg/mL Normocin, and 100 U/mL-100 μg/mL Pen-Strep. Cells used for assays were between passages 12 and 18. […] HEK-Blue IL-4/IL-13 cells were trypsinized, spun down, and resuspended in DMEM with 10% heat-inactivated FBS, and 100 U/mL-100 μg/mL Pen-Strep at a concentration of 3.125E5/mL. 160 μL of the cell suspension was added to each well of a 96 well plate, avoiding the edges of the plate and equilibrated in an incubator for 1 hour. After 2 hours, 40 μL of the small molecule/IL-4 solution was added to each well. Each measurement performed in quadruplicate. Cells were incubated for 20 hours at 37° C./5% CO2. Quanti-Blue was prepared according to manufacture and 160 μL added to each well of a 96 well plate, avoiding edges. 40 μL of cell supernatant was added to each well and then incubated for 3 hours at 37° C. The optical density was then read at 650 nm with a Molecular Devices SpectraMax M5 Microplate Reader. Data was plotted and analyzed in GraphPad Prism 8.
HEK-Blue IL-4/IL-13 cells were purchased from Invivogen and maintained in DMEM complete with 10% fetal bovine serum, 10 μg/ml of blasticidin and 100 μg/ml of Zeocin, 100 μg/mL Normocin, and 100 U/mL-100 μg/mL Pen-Strep. Cells used for assays were between passages 12 and 18. Prior to screening small molecules, the SEAP production induced by IL-4 alone was tested in the cells (FIG. 13) and determined to be 0.3 ng/mL. The EC25 for the IL-4 induced SEAP production (0.1 ng/mL final well concentration) was chosen for running small molecule inhibition assays.
For screening small molecules, 25 µL of each molecule (FIG. 9) in DMEM with 4% DMSO was added to 25 μL of 1 ng/ml IL-4 in DMEM and incubated for 2 hours at 37° C. HEK-Blue IL-4/IL-13 cells were trypsinized, spun down, and resuspended in DMEM with 10% heat-inactivated FBS, and 100 U/mL-100 μg/mL Pen-Strep at a concentration of 3.125E5/mL. 160 μL of the cell suspension was added to each well of a 96 well plate, avoiding the edges of the plate and equilibrated in an incubator for 1 hour. After 2 hours, 40 μL of the small molecule/IL-4 solution was added to each well. Each measurement was performed in […]. Cells were incubated for 20 hours at 37° C./5% CO2. Quanti-Blue was prepared according to manufacture and 160 μL added to each well of a 96 well plate, avoiding edges. 40 μL of cell supernatant was added to each well and then incubated for 3 hours at 37° C. The optical density was then read at 650 nm with a Molecular Devices SpectraMax M5 Microplate Reader. Data was plotted and analyzed in GraphPad Prism 8.
HEK-Blue IL-4/IL-13 cells used to screen analogs of compound 52 from ACS Chemical Biology paper (also referred to herein as D9). Assay was run as described in Examples 2 and 3. All compounds were screened at 10 μM, 1 μM, and 250 nM in quadruplicate. The results are depicted in FIGS. 17-21.

[1] = test system: STAT-6 phosphorylation in THP-1 cells; assay: THP-1 STAT-6/pSTAT-6 Western blot assay; assay type: cell-based; settings: Homo sapiens, THP-1, THP-1 cells, IL-4 preincubated with compound, read-out: EC50 of reduction in pSTAT-6 levels
Experimental: THP-1 cells were maintained in RMPI-1640 with 10% heat-inactivated fetal bovine serum and 50 μM beta-mercaptoethanol. Cells used for assays were between passages 6 and 10. 10 ng/ml IL-4 was preincubated with experimental sample (vehicle, D9 etc) for 2 hours at 37° C. Solutions were then added to 2E6 THP-1 cells in 1 mL. THP-1 cells were incubated for 30 minutes in incubator at 37° C. 5% CO2. Cells were then spun down, lysed with 200 μL ice-cold RIPA buffer complete with phosphatase and protease inhibitors. Cell lysate was incubated on ice for 30 minutes and then stored at −20° C. until western blot analysis. Undiluted cell-lysate was run SDS-PAGE followed by transfer to membrane using Biorad equipment. Membranes were incubated with 1:1000 primary antibody overnight at 4° ° C. Membranes then incubated with 1:50,000 dilution secondary for 1 hour at RT. […] The brightness/contrast was adjusted in […] and the area under the curve of each lane was quantified.
THP-1 cells were maintained in RMPI-1640 with 10% heat-inactivated fetal bovine serum and 50 μM beta-mercaptoethanol. […] The brightness/contrast was adjusted in FIJI (FIGS. 15 and 16) and the area under the curve of each lane was quantified. The ratio of phosphorylated STAT6 to STAT6 was calculated and normalized to the amount of total STAT6. The data was plotted and analyzed using Graphpad Prism 8.

N#Cc1c(-c2ccc(O)c(O)c2)cc(-c2ccc(F)cc2)nc1N [Compound D9]
EC50 (pSTAT6 in Ramos cells): 6.12 µM | EC50 (IL-4): 5.73 µM | EC50 [1]: 3.1 µM
